Measurements as given in the supplement of paper PMC12463676, “Small-molecule dissolution of stress granules by redox modulation benefits ALS models” (Nature Chemical Biology, 2025).

What was measured:
lipoamide = compound: NC(=O)CCCCC1CCSS1 [lipoamide]; test: thermal stability z-score vs DMSO; higher = more thermally stabilized by treatment; details: HeLa, lipoamide concentration 100 µM
Experimental: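 Cellular thermal proteome profiling in HeLa cells. Cells were treated with 100 µM lipoamide for 1 h, with or without 1 mM arsenate for a further 1 h, then heated to ten temperatures (37-66.3 °C), and soluble protein was quantified by TMT mass spectrometry relative to 0.1% DMSO controls. The thermal stability score (sum of log2 fold changes minus the abundance score) was transformed to a z-score; mean of n = 3 experiments.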

potassium arsenate = compound: O=[As]([O-])(O)O.[K+] [potassium arsenate]; test: as above; details: HeLa; arsenate concentration 1 mM
Experimental: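 Cellular thermal proteome profiling in HeLa cells treated with 1 mM arsenate for 1 h (DMSO pretreatment), heated to ten temperatures (37-66.3 °C). Soluble protein was quantified by TMT mass spectrometry relative to DMSO controls; the thermal stability score was transformed to a z-score; mean of n = 3 experiments.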

[1] = arsenate co-treatment: 1 mM arsenate 1 h
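Also: each temperature applied for 3 min, abundance score taken as mean log2 fold change at the two lowest temperatures, z-score obtained by mean subtraction and division by SD.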

Sequence of UniProt Q8NI37 (Q8NI37 whole entry): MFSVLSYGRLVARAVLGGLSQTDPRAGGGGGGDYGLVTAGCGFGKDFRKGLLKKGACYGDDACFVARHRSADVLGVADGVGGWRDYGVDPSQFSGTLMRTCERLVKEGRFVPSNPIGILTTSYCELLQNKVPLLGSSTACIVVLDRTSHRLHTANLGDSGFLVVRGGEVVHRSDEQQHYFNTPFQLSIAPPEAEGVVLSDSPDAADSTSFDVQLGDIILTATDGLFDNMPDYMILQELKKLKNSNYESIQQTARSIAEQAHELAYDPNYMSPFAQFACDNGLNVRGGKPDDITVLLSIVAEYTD
Sequence of UniProt Q9NY27 (Q9NY27 whole entry): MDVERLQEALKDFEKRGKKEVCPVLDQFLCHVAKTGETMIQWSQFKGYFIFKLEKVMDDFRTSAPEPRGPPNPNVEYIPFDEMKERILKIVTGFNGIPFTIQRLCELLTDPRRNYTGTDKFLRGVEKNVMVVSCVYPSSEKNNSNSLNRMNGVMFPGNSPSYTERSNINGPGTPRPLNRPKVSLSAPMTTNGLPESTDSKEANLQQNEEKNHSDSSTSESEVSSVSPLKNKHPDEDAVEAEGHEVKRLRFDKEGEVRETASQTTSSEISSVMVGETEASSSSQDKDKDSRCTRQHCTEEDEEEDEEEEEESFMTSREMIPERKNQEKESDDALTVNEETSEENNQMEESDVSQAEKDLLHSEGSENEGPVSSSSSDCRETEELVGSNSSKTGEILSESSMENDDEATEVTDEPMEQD
Sequence of UniProt Q5SWA1 (Q5SWA1 whole entry): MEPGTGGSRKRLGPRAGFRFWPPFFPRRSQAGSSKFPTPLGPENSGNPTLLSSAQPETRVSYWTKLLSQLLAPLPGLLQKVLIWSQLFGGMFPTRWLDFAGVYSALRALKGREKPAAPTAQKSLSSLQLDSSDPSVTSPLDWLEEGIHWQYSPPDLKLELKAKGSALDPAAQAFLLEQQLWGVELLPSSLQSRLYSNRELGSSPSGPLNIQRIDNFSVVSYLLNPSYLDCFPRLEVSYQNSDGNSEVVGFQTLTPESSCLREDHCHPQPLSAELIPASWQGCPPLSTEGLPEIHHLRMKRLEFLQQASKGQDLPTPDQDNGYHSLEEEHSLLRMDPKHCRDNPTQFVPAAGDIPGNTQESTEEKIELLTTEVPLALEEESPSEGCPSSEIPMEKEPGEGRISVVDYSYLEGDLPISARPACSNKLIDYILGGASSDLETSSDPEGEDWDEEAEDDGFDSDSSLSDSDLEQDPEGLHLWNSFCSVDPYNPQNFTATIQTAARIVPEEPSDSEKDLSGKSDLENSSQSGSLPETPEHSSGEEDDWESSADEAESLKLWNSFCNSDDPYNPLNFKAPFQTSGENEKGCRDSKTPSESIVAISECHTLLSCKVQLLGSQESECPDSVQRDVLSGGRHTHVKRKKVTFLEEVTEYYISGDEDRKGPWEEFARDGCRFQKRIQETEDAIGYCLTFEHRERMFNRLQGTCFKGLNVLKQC
Sequence of UniProt O60927 (O60927 whole entry): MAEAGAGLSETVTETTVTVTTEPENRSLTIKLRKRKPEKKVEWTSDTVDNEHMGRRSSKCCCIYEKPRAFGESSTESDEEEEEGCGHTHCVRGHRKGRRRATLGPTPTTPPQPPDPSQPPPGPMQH
Sequence of UniProt Q9Y3B1 (Q9Y3B1 whole entry): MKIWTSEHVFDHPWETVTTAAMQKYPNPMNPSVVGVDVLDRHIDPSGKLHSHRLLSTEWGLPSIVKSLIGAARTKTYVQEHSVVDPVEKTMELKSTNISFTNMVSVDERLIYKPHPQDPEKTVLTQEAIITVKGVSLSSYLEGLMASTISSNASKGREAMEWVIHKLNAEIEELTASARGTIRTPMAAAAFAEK
Sequence of UniProt P32119 (P32119 whole entry): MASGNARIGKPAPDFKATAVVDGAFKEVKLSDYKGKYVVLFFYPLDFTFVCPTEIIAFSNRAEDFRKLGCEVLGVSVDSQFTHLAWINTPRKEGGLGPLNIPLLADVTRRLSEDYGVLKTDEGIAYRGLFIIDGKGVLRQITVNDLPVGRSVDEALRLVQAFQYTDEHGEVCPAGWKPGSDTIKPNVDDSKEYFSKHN
Sequence of UniProt P48147 (P48147 whole entry): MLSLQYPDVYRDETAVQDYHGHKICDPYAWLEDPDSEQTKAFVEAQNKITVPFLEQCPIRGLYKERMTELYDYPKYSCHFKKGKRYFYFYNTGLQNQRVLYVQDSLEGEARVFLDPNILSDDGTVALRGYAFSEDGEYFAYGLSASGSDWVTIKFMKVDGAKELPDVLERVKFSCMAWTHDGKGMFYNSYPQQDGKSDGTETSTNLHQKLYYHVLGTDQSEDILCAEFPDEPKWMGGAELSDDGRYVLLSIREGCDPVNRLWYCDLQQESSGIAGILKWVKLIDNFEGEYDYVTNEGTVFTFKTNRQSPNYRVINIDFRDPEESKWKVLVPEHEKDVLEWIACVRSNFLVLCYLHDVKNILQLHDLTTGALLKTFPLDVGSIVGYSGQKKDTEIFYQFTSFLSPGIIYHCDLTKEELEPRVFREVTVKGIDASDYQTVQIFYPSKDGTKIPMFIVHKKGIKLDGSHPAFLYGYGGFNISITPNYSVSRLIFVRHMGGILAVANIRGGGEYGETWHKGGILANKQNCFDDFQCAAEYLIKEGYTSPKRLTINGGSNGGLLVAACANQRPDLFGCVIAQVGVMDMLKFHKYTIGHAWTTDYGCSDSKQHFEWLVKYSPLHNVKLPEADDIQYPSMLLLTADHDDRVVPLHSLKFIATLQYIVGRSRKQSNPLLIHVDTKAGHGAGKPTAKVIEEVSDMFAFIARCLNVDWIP
Sequence of UniProt P63098 (P63098 whole entry, looked up): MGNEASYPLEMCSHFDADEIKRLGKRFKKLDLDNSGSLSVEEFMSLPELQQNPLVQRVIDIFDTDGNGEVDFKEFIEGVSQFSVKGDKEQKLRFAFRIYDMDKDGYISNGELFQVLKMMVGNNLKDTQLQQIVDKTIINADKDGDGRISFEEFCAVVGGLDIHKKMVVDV
Sequence of UniProt Q5H9R7 (Q5H9R7 whole entry): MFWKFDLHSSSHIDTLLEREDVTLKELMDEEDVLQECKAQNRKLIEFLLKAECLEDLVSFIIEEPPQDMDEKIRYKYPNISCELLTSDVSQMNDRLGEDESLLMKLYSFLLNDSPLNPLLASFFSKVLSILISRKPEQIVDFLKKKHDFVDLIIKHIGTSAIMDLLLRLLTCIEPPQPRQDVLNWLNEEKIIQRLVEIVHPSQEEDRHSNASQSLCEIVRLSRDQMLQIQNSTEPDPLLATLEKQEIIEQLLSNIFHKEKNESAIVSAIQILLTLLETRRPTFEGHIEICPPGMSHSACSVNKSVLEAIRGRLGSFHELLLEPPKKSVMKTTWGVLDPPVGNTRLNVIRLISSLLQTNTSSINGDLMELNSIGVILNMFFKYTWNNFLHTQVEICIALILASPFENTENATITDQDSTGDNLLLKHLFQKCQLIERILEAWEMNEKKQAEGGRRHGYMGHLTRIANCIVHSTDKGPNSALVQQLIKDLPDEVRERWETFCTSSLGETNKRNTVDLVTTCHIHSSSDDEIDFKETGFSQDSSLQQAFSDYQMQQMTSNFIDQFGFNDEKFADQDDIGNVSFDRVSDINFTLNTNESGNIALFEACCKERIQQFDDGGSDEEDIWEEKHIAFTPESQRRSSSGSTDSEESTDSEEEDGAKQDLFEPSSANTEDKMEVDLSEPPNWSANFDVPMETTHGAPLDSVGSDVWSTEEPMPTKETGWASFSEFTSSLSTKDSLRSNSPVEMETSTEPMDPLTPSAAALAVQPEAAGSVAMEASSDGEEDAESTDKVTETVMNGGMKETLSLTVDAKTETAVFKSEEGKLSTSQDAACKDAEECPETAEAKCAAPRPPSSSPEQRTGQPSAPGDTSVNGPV
Sequence of UniProt Q8TF05 (Q8TF05 whole entry): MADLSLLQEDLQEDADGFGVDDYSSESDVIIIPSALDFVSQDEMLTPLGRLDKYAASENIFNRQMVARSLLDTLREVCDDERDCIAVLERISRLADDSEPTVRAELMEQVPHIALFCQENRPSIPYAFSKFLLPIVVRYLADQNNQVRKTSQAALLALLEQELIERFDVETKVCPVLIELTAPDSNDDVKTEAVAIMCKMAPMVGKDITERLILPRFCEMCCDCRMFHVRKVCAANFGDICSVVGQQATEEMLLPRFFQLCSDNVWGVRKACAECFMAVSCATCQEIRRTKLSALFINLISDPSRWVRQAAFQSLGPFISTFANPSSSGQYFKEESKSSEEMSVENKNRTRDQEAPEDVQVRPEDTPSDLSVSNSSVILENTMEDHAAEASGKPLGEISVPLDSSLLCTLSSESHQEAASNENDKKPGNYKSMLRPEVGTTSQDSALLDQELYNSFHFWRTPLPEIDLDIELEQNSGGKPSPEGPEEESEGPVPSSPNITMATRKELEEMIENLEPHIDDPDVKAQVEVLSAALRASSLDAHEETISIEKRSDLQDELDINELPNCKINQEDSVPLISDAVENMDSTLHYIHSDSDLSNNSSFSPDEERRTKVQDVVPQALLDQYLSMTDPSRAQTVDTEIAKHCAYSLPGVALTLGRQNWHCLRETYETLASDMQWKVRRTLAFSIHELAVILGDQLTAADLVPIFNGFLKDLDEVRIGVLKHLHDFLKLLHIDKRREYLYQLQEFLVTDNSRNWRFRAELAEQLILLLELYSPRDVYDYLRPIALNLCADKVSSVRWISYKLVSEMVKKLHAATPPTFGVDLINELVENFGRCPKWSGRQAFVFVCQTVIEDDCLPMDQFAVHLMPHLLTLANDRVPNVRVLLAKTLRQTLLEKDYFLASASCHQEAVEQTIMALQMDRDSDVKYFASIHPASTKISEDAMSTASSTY
Sequence of UniProt P50897 (P50897 whole entry): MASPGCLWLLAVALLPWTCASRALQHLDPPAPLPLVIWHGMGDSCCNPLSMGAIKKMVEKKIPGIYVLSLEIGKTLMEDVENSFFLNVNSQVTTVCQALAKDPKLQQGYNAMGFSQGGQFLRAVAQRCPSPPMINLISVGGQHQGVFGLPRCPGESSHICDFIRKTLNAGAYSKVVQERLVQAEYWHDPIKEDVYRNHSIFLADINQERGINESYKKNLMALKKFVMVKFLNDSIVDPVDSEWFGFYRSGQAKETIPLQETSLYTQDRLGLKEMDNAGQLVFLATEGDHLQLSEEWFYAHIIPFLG

Target	thermal stability z-score (lipoamide; [1])	thermal stability z-score (lipoamide; arsenate co-treatment: none)	thermal stability z-score (potassium arsenate)
PPP1R10 (UniProt Q96QC0)	0.565	0.255	0.332
PPP1R11 (UniProt O60927)	0.0148	-0.832	-0.187
PPP1R12A (UniProt O14974)	1.32	0.52	0.979
PPP1R13L (UniProt Q8WUF5)	-0.367	-0.132	-0.21
PPP1R14B (UniProt Q96C90)	0.068	0.535	-0.284
PPP1R15B (UniProt Q5SWA1)	-0.102	-0.0322	-0.0349
PPP1R18 (UniProt Q6NYC8)	-0.336	0.0646	0.444
PPP1R21 (UniProt Q6ZMI0)	-0.328	-0.0718	-0.839
PPP1R37 (UniProt O75864)	-0.153	-0.186	-0.0199
PPP2CA (UniProt P67775)	0.297	0.0726	-1.92
PPP2CB (UniProt P62714)	0.564	0.167	-0.474
PPP2R1A (UniProt P30153)	0.108	0.121	-1.48
PPP2R1B (UniProt P30154)	0.0372	-0.0931	0.107
PPP2R2A (UniProt P63151)	0.294	0.531	-0.49
PPP2R2D (UniProt Q66LE6)	-0.473	-0.0425	0.0879
PPP2R4 (UniProt Q15257)	0.108	0.233	-0.0643
PPP2R5A (UniProt Q15172)	0.468	0.527	0.703
PPP2R5C (UniProt Q13362)	1.38	0.649	-0.0211
PPP2R5D (UniProt Q14738)	-0.378	-0.239	0.228
PPP2R5E (UniProt Q16537)	0.219	0.285	0.682
PPP3CA (UniProt Q08209)	1.25	0.912	0.275
PPP3CB (UniProt P16298)	-0.386	-2.04	-0.199
PPP3R1 (UniProt P63098)	0.0623	0.412	0.32
PPP4C (UniProt P60510)	0.813	0.205	0.166
PPP4R1 (UniProt Q8TF05)	0.26	0.0864	0.0118
PPP4R2 (UniProt Q9NY27)	-0.326	0.221	-0.136
PPP4R3A (UniProt Q6IN85)	0.268	0.184	-0.165

Target	thermal stability z-score (lipoamide; [1])	thermal stability z-score (lipoamide; arsenate co-treatment: none)	thermal stability z-score (potassium arsenate)
PPP4R3B (UniProt Q5MIZ7)	-0.195	-0.1	-0.227
PPP5C (UniProt P53041)	0.859	0.0455	0.649
PPP6C (UniProt O00743)	0.512	0.089	-0.409
PPP6R1 (UniProt Q9UPN7)	-0.476	-0.635	-0.671
PPP6R2 (UniProt O75170)	-0.348	0.143	-0.937
PPP6R3 (UniProt Q5H9R7)	1.14	0.331	0.262
PPT1 (UniProt P50897)	-0.494	-0.324	-0.00594
PPTC7 (UniProt Q8NI37)	-0.248	-0.287	0.222
PPWD1 (UniProt Q96BP3)	-0.218	-0.513	-0.656
PQBP1 (UniProt O60828)	0.533	-0.261	-0.0247
PRC1 (UniProt O43663)	-0.144	-0.106	-0.601
PRCC (UniProt Q92733)	0.409	-0.0293	0.465
PRCP (UniProt P42785)	-0.242	-0.33	0.42
PRDX2 (UniProt P32119)	0.0679	0.162	-0.431
PRDX3 (UniProt P30048)	0.429	0.812	-0.448
PRDX4 (UniProt Q13162)	0.155	0.76	0.674
PRDX5 (UniProt P30044)	-0.275	0.138	-0.761
PRDX6 (UniProt P30041)	0.00439	0.281	0.144
PREB (UniProt Q9HCU5)	-0.337	-0.353	-0.0461
PRELID1 (UniProt Q9Y255)	0.0933	-0.2	-0.054
PRELID3B (UniProt Q9Y3B1)	-0.72	-0.844	-0.684
PREP (UniProt P48147)	-0.299	-0.268	0.347
PREPL (UniProt Q4J6C6)	0.836	0.783	-0.177
PREX1 (UniProt Q8TCU6)	0.02	0.0645	-0.0577
PRG4 (UniProt Q92954)	-2.2	-2.18	0.248
PRIM1 (UniProt P49642)	-0.361	-0.125	-0.439
PRIM2 (UniProt P49643)	0.176	-0.165	-0.113
